Assay results from patent US20120107331A1, “GEMM RIBOSWITCHES, STRUCTURE-BASED COMPOUND DESIGN WITH GEMM RIBOSWITCHES, AND METHODS AND COMPOSITIONS FOR USE OF AND WITH GEMM RIBOSWITCHES” (YALE UNIVERSITY, priority 2009, published 2012).

Experiments:
[1] = tested on: GEMM riboswitch C92U mutant (WT-110 background); assay: Gel-shift Kd measurement, C92U mutant RNA; format: binding, Vibrio cholerae; details: for binding (in words): C92U RNA; for binding (in words) / Kd: gel-shift; for Kd: RNA C92U, dash = no binding
From the text: (§1) Point mutants were cloned using the Quik Change protocol. Radiolabeled c-di-GMP was obtained enzymatically according to published procedures and purified by polyacrylamide gel electrophoresis (PAGE) (Paul, R. et al. Cell cycle-dependent dynamic localization of a bacterial response regulator with a novel di-guanylate cyclase output domain. Genes & Development 18, 715-27 (2004); Christen, M., Christen, B., Folcher, M., Schauerte, A. & Jenal, U. Identification and characterization of a cyclic di-GMP-specific phosphodiesterase and its allosteric control by GTP. J Biol Chem 280, 30829-37 (2005)). A constitutively active DGC, PleD* was expressed and purified as described and the reaction was initiated using [α-^32P]GTP as the substrate (Paul, R. et al. Cell cycle-dependent dynamic localization of a bacterial response regulator with a novel di-guanylate cyclase output domain. Genes & Development 18, 715-27 (2004)). A single band appeared as the reaction proceeded that ran slower than the starting material when purified by PAGE. Radiolabeled c-diAMP was obtained similarly, using the protein DisA and [α-^32P]ATP as the substrate. Riboswitch RNAs were folded in the presence of radiolabeled c-di-GMP or c-diAMP and folding buffer. The complex was allowed to equilibrate for 1 hour and bound and free c-di-GMP were separated by native (100 mM Tris/HEPES pH 7.5, 10 mM MgCl2, 0.1 mM EDTA) PAGE at 4° C. A STORM phosphorimager was used to scan gels and the bands were quantitated using ImageQuant. Fraction bound was graphed versus RNA concentration and fit using KaleidaGraph to obtain Kds according to the equation:
(§2) F=fraction bound; F∞=fraction bound at saturation; C=riboswitch concentration
(§3) A gel-shift assay, which directly measures c-di-GMP binding to the GEMM RNA (FIG. 3A, B), was developed in order to test biochemical predictions resulting from the GEMM riboswitch structure. Specifically, radiolabeled c-di-GMP was incubated with the riboswitch and the RNA bound ligand was separated from the free on a native polyacrylamide gel.
(§4) The three nucleotides directly involved in ligand recognition (G20, A47 and C92) were mutated and affinity for c-di-GMP was measured by gel shift analysis in the context of the WT-110 nucleotide background (Table 1) (Sudarsan, N. et al. Riboswitches in eubacteria sense the second messenger cyclic di-GMP. Science 321, 411-3). Mutational analysis supports the crystallographically observed base pair between a conserved cytidine, C92, and c-di-GMP. […] By mutating it to an A or G, this ability to base pair with the ligand is lost. The large effect that these mutations have on ligand binding confirms that C92 is making an important contact with Gβ. The minor affect seen upon mutation to a U is in a reasonable range given the potential to form a wobble pair with Gβ. A natural GEMM sequence has been identified that lacks a C at position 92, but instead has a C at position 93. This RNA can bind c-di-GMP with an affinity of approximately 1 uM.

[2] = target: GEMM riboswitch Vc2 110 (WT-110); assay: Gel-shift Kd measurement, WT-110 RNA; format: binding, Vibrio cholerae; details: for Kd / binding (in words): gel-shift; for Kd: radiolabeled ligand, RNA WT-110, dash = no binding
From the text: as §1, §2, §3
This assay was used to measure a binding constant for the crystallized RNA and also to verify that this method gave the Kd measurements similar to what had been fond using in-line probing. To validate the method, Vc2 110 was used and found to have a Kd of ˜7 nM. This value agrees well with affinities obtained previously by in-line probing for this same sequence (Sudarsan, N. et al. Riboswitches in eubacteria sense the second messenger cyclic di-GMP. Science 321, 411-3). A RNA corresponding to the crystallization construct with no U1A binding loop (Vc2 91) was then tested. […] The RNA used in the crystallographic studies (Vc2 91 with a U1A binding loop) bound with a Kd slightly weaker than wild-type, but is within 9-fold of the original value.

[3] = tested on: GEMM riboswitch A47G mutant (WT-110 background); assay: Gel-shift Kd measurement, A47G mutant RNA; format: binding, Vibrio cholerae; details: for Kd: gel-shift, RNA A47G, dash = no binding
From the text: as §1, §2, §3
as §4, with “A natural GEMM sequence has been identified that lacks a C at position 92, but instead has a C at position 93. This RNA can bind c-di-GMP with an affinity of approximately 1 uM.” left out

GEMM riboswitch = details: Sudarsan et al. 2008; read-out: affinity; cited from earlier work
[4] = target: GEMM riboswitch Vc2 91 (WT-91); assay: Gel-shift Kd measurement, WT-91 RNA (crystallization construct with no U1A binding loop); set-up: species or system Vibrio cholerae; details: radiolabeled ligand, RNA WT-91, dash = no binding seen
From the text: as §1, with “The complex was allowed to equilibrate for 1 hour and bound and free c-di-GMP were separated by native (100 mM Tris/HEPES pH 7.5, 10 mM MgCl2, 0.1 mM EDTA) PAGE at 4° C.” left out, “Fraction bound was graphed versus RNA concentration and fit using KaleidaGraph to obtain Kds according to the equation:” left out

[5] = tested on: GEMM riboswitch A47U mutant (WT-110 background); assay: Gel-shift Kd measurement, A47U mutant RNA; format: binding, Vibrio cholerae
From the text: (§5) Point mutants were cloned using the Quik Change protocol. Radiolabeled c-di-GMP was obtained enzymatically according to published procedures and purified by polyacrylamide gel electrophoresis (PAGE) (Paul, R. et al. Cell cycle-dependent dynamic localization of a bacterial response regulator with a novel di-guanylate cyclase output domain. Genes & Development 18, 715-27 (2004); Christen, M., Christen, B., Folcher, M., Schauerte, A. & Jenal, U. Identification and characterization of a cyclic di-GMP-specific phosphodiesterase and its allosteric control by GTP. J Biol Chem 280, 30829-37 (2005)). A constitutively active DGC, PleD* was expressed and purified as described and the reaction was initiated using [α-^32P]GTP as the substrate (Paul, R. et al. Cell cycle-dependent dynamic localization of a bacterial response regulator with a novel di-guanylate cyclase output domain. Genes & Development 18, 715-27 (2004)). […] A STORM phosphorimager was used to scan gels and the bands were quantitated using ImageQuant. […]
(§6) The three nucleotides directly involved in ligand recognition (G20, A47 and C92) were mutated and affinity for c-di-GMP was measured by gel shift analysis in the context of the WT-110 nucleotide background (Table 1) (Sudarsan, N. et al. Riboswitches in eubacteria sense the second messenger cyclic di-GMP. Science 321, 411-3). […]

[6] = target: natural GEMM sequence that lacks a C at position 92 but has a C at position 93; assay: Binding of c-di-GMP to natural GEMM sequence with C at position 93; details: read-out: affinity
Experimental: as §4

[7] = tested on: GEMM riboswitch A47C mutant (WT-110 background); assay: Gel-shift Kd measurement, A47C mutant RNA; format: binding, Vibrio cholerae
From the text: as §5, §6

[8] = tested on: GEMM riboswitch C92 to A mutant (WT-110 background); assay: Gel-shift affinity measurement, C92A mutant RNA; format: binding, Vibrio cholerae
From the text: as §5, §6

[9] = tested on: GEMM riboswitch G20C mutant (WT-110 background); assay: Gel-shift Kd measurement, G20C mutant RNA; format: binding, Vibrio cholerae
From the text: as §1
F=fraction bound; F∞=fraction bound at saturation; C=riboswitch concentration […]
as §6

[10] = target: GEMM riboswitch C92U, G20A mutant; assay: Gel-shift Kd measurement, C92U, G20A double mutant RNA; format: binding, Vibrio cholerae; details: for Kd: gel-shift, RNA C92U, G20A, dash = no binding
From the text: as §1, §2
as §3, with “gel. […]” for “gel.”

[11] = tested on: natural GEMM sequence lacking C at position 92, C at position 93 mutated to an A; assay: Binding of c-di-GMP to natural GEMM sequence with C93 mutated to A
Experimental: as §4

[12] = tested on: GEMM riboswitch G20U mutant (WT-110 background); assay: Gel-shift Kd measurement, G20U mutant RNA; format: binding, Vibrio cholerae
From the text: as §5, §6

[13] = tested on: GEMM riboswitch G20A mutant (WT-110 background); assay: Gel-shift Kd measurement, G20A mutant RNA; format: binding, Vibrio cholerae
From the text: as §5, §6

[14] = target: known c-di-GMP binding proteins; details: range from 50 nM to several micromolar; Hengge 2009; read-out: binding affinity; cited from earlier work
[15] = tested on: GEMM riboswitch C92 to G mutant (WT-110 background); assay: Gel-shift affinity measurement, C92G mutant RNA; format: binding, Vibrio cholerae
From the text: as §5, §6

[16] = target: GEMM riboswitch Vc2 91 with a U1A binding loop (WT-U1A); assay: Gel-shift Kd measurement, WT-U1A RNA (Vc2 91 with a U1A binding loop); set-up: species or system Vibrio cholerae
From the text: as §5, with “(2004)). A single band appeared as the reaction proceeded that ran slower than the starting material when purified by PAGE. Radiolabeled c-diAMP was obtained similarly, using the protein DisA and [α-^32P]ATP as the substrate. Riboswitch RNAs were folded in the presence of radiolabeled c-di-GMP or c-diAMP and folding buffer.” for “(2004)).”

SMILES: Nc1nc2c(ncn2[C@@H]2O[C@H](COP(=O)(O)O[C@H]3[C@@H](O)[C@H](n4cnc5c(=O)[nH]c(N)nc54)O[C@@H]3COP(=O)(O)O)[C@@H](O)[C@H]2O)c(=O)[nH]1 [pGpG]
- binding (in words) [1]: does not bind
- Kd [2]: 0.49 ± 0.15 µM
- binding (in words) ([2]; wild-type sequence): binds
- affinity lower than that of the cyclic ligand ([2]; wild-type sequence, pGpG vs c-di-GMP): approximately 66 fold
- binds the linear form better than c-di-GMP ([3]; A47G, pGpG vs c-di-GMP): 3 fold
- Kd [3]: 1.4 ± 0.12 µM

SMILES: Nc1nc2c(ncn2[C@@H]2O[C@H](COP(=O)(O)O[C@H]3[C@@H](O)[C@H](n4cnc5c(N)ncnc54)O[C@@H]3COP(=O)(O)O)[C@@H](O)[C@H]2O)c(=O)[nH]1 [pApG]
- binding (in words) [1]: does not bind

SMILES: Nc1nc2c(ncn2[C@@H]2O[C@H](COP(=O)(O)O)[C@@H](OP(=O)(O)OC[C@H]3O[C@@H](n4cnc5c(N)ncnc54)[C@H](O)[C@@H]3O)[C@H]2O)c(=O)[nH]1 [pGpA]
- affinity lower than that of the wild-type RNA for pGpG ([1]; C92U RNA with pGpA vs wild-type RNA with pGpG): approximately 27 fold
- binding (in words) [1]: binding was observed
- Kd [1]: 16 ± 5.2 µM
- binding (in words) ([2]; wild-type sequence): not

SMILES: Nc1nc2c(ncn2[C@@H]2O[C@@H]3COP(=O)(O)O[C@H]4[C@@H](O)[C@H](n5cnc6c(=O)[nH]c(N)nc65)O[C@@H]4COP(=O)(O)O[C@H]3[C@H]2O)c(=O)[nH]1 [c-di-GMP, cyclic diguanosine monophosphate]
- Kd (GEMM riboswitch): ~0.001 µM
- Kd [4]: 0.0064 ± 0.0028 µM
- decrease in binding affinity ([5]; A47 mutated to U vs wild-type): approximately 1000 fold
- Kd ([5]; gel-shift, RNA A47U, dash = no binding): 3.5 ± 0.52 µM
- Kd [6]: ~1 µM
- decrease in binding affinity ([7]; A47 mutated to C vs wild-type): approximately 1000 fold
- Kd ([7]; gel-shift, RNA A47C, dash = no binding): 8.5 ± 3 µM
- effect of mutation on affinity (in words) [8]: reduces affinity for c-di-GMP substantially
- reduction in affinity ([9]; G20C vs wild-type): 2 fold
- effect of mutation on affinity (in words) ([9]; G20 to C): maintains approximately wild-type affinity
- Kd ([9]; gel-shift, RNA G20C, dash = no binding): 0.013 ± 0.0012 µM
- Kd [10]: 3.2 ± 0.6 µM
- loss in affinity ([1]; C92U vs wild-type, c-di-GMP): 6 fold
- Kd [1]: 0.043 ± 0.019 µM
- affinity (in words) [11]: all affinity for c-di-GMP is lost
- Kd [2]: 0.0074 ± 0.0024 µM
- loss in affinity ([12]; G20U vs wild-type): approximately 45 fold
- Kd ([12]; gel-shift, RNA G20U, dash = no binding): 0.33 ± 0.15 µM
- effect of mutation on affinity (in words) ([13]; G20 to A): maintains approximately wild-type affinity
- Kd ([13]; gel-shift, RNA G20A, dash = no binding): 0.0047 ± 0.0013 µM
- Kd [14]: ≥ 0.05 µM
- decrease in binding affinity ([3]; A47 mutated to G vs wild-type): approximately 1000 fold
- Kd [3]: 4.2 ± 1.7 µM
- effect of mutation on affinity (in words) [15]: reduces affinity for c-di-GMP substantially
- Kd weaker than wild-type ([16]; Vc2 91 with U1A binding loop vs original value): ≤ 9 fold
- Kd ([16]; gel-shift, radiolabeled ligand, RNA WT-U1A, dash = no binding seen): 0.055 ± 0.014 µM

SMILES: Nc1ncnc2c1ncn2[C@@H]1O[C@@H]2COP(=O)(O)O[C@H]3[C@@H](O)[C@H](n4cnc5c(N)ncnc54)O[C@@H]3COP(=O)(O)O[C@H]2[C@H]1O [c-di-AMP, cyclic diadenosine monophosphate]
- bound c-di-AMP better than c-di-GMP ([10]; C92U/G20A double mutant): approximately 6 fold
- Kd [10]: 0.54 ± 0.029 µM
